{
  "source": "patent US20100144786A1",
  "about": "“QUINOLINE DERIVATIVES AS CRTH2 RECEPTOR LIGANDS” (priority 2007, published 2010)",
  "target": "T1, CRTH2 receptor (Homo sapiens, UniProt Q9Y5Y4)",
  "T1 construct": "expressed in transfected cells; host or cells: Human embryonic kidney (HEK) cells, membranes",
  "T1 sequence (Q9Y5Y4 1-395)": "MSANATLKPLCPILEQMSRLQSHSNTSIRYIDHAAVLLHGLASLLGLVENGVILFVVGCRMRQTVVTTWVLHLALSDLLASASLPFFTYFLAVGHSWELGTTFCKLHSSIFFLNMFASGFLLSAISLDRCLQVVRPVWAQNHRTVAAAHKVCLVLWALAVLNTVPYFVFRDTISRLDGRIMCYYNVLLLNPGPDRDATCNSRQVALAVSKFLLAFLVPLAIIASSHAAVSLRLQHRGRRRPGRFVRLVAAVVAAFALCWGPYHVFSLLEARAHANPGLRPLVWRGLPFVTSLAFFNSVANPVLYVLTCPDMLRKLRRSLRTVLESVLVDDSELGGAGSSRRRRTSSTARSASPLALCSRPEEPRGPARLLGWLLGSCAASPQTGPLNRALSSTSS",
  "assay": "CRTH2 radioligand binding assay ([3H]-PGD2 displacement, SPA)",
  "settings": "HEK cell membranes expressing the CRTH2 receptor, 1 nM [3H]-PGD2",
  "protocol": "Compounds of the invention were tested using the following biological test methods to determine their ability to displace PGD2 from the CRTH2 receptor and for their ability to antagonise the functional effects of PGD2 at the CRTH2 receptor.\nThe receptor binding assay is performed in a final volume of 200 μl binding buffer [10 mM BES (pH 7.4), 1 mM EDTA, 10 mM manganese chloride, 0.01% BSA] and 1 nM [^3H]-PGD2 (Amersham Biosciences UK Ltd). Ligands are added in assay buffer containing a constant amount of DMSO (1% by volume). Total binding is determined using 1% by volume of DMSO in assay buffer and non-specific binding is determined using 10 μM of unlabeled PGD2 (Sigma). Human embryonic kidney (HEK) cell membranes (3.5 μg) expressing the CRTH2 receptor are incubated with 1.5 mg wheatgerm agglutinin SPA beads and 1 nM [^3H]-PGD2 (Amersham Biosciences UK Ltd) and the mixture incubated for 3 hours at room temperature. Bound [^3H]-PGD2 is detected using a Microbeta TRILUX liquid scintillation counter (Perkin Elmer). Compound IC50 value is determined using a 6-point dose response curve in duplicate with a semi-log compound dilution series. IC50 calculations are performed using Excel and XLfit (Microsoft), and this value is used to determine a Ki value for the test compound using the Cheng-Prusoff equation.",
  "data": [
    {"smiles": "CCc1nc2c(F)ccc(OCC(=O)O)c2c(OC(F)F)c1Cc1ccc(C#N)cc1", "note": "[Example 1, [3-(4-cyanobenzyl)-4-difluoromethoxy-2-ethyl-8-fluoroquinolin-5-yloxy]acetic acid]", "values": [
      {"measurement": "IC50", "result": 6.1, "unit": "nM"}
    ]},
    {"smiles": "CCc1nc2c(F)ccc(OCC(=O)O)c2c(OC(F)F)c1Cc1ccc(Br)cc1", "note": "[Example 2, [3-(4-bromobenzyl)-4-difluoromethoxy-2-ethyl-8-fluoroquinolin-5-yloxy]acetic acid]", "values": [
      {"measurement": "IC50", "result": 7.5, "unit": "nM"}
    ]}
  ]
}
